Results: patent US11814391B2, “Macrocyclic compounds for the treatment of medical disorders” (Achillion Pharmaceuticals, Inc., priority 2018, dated 2023)
Read-outs that look alike come from different tables or passages of the source.

Settings: rcm bond, 17-membered ring, Grubbs II

**Q.** Which ring closure, isolated yield (the molecule shown is the open-chain precursor, DCE, 1.25 mM, 50.0 °C) does the source give for `C=Cc1cc(-c2cnc(C)nc2)cc2c(C(C)=O)nn(CC(=O)N3[C@H](C(=O)Nc4nc(C(F)(F)F)ccc4C)C[C@@]4(CNC(=O)C[C@@H](C)CCC=C(C)C)C[C@@H]34)c12` here?
**A.** Its ring closure, isolated yield is 55.6%.

**Q.** For `CC(=O)c1nn2c3c(cc(-c4cnc(C)cn4)cc13)CC=CCC[C@@H](C)C(=O)NC[C@@]13C[C@@H](C(=O)Nc4nc(C(F)(F)F)ccc4C)N(C(=O)C2)[C@@H]1C3`, which ring closure, isolated yield (from C=CCC[C@@H](C)C(=O)NC[C@@]12C[C@@H](C(=O)Nc3nc(C(F)(F)F)ccc3C)N(C(=O)Cn3nc(C(C)=O)c4cc(-c5cnc(C)cn5)cc(CC=C)c43)[C@@H]1C2, toluene, 1.32 mM, 80.0 °C) is on record?
**A.** Its ring closure, isolated yield is 62.1%.

**Q.** With `CC(=O)c1nn2c3c(cc(-c4cnc(C)nc4)cc13)CC=CCC(C)(C)CC(=O)NC[C@@]13C[C@@H](C(=O)Nc4nc(C(F)(F)F)ccc4C)N(C(=O)C2)[C@@H]1C3` as the molecule, how does the ring closure, isolated yield (from C=CCc1cc(-c2cnc(C)nc2)cc2c(C(C)=O)nn(CC(=O)N3[C@H](C(=O)Nc4nc(C(F)(F)F)ccc4C)C[C@@]4(CNC(=O)CC(C)(C)CC=C)C[C@@H]34)c12, toluene, 1.2 mM, 80.0 °C) read?
**A.** Its ring closure, isolated yield is 67.4%.

**Q.** For “(1,R,3S,5R)-2-{2-[3-Acetyl-5-methoxy-7-(prop-2-en-1-yl)indazol-1-yl]acetyl}-5-(hex-5-enamidonaethyl)-N-[3-methyl-6-(trifluoromethyl)pyridin-2-yl]-2-azabicyclo[3.1.0]hexane-3-carboxamide”, which ring closure, isolated yield (the molecule shown is the open-chain precursor, toluene, 1.43 mM, 80.0 °C) is on record?
**A.** The ring closure, isolated yield was 69.1%.

**Q.** Which ring closure, isolated yield (the molecule shown is the open-chain precursor, toluene, 1.72 mM, 80.0 °C) does the source give for “(1R,3S,5R)-2-(2-(3-Acetyl-7-allyl-5-(2-methylpyrimidin-5-yl)-1H-indazol-1-yl)acetyl)-N-(3-methyl-6-(trifluoromethyl)pyridin-2-yl)-5-(((R)-2-methylhex-5-amido)methyl)-2-azabicyclo[3.1.0]hexane-3-carboxamide” here?
**A.** The ring closure, isolated yield was 47.9%.
